Paper PMC3715522, “Characterization of Fructose-1,6-Bisphosphate Aldolase during Anoxia in the Tolerant Turtle, Trachemys scripta elegans: An Assessment of Enzyme Activity, Expression and Structure” (PLoS ONE, 2013)

Test system: T1, turtle liver aldolase (ALDOA/ALDOB, suggested heterotetramer)
T1 construct: native, purified from liver of normoxic adult females (DEAE+, two Cibacron Blue steps); ~37 kDa subunit
Test: coupled NADH assay (alpha-glycerophosphate dehydrogenase / triose phosphate isomerase), […] nm
Format: biochemical, Trachemys scripta elegans
Settings: enzyme from normoxic liver; 100 mM KPi pH 7.2, 10 mM EDTA, 25 °C; A/B isoenzyme mixture or heterotetramer

Km [mM]	Structure (SMILES)
~14	O=P(O)(O)OCC1(O)O[C@H](CO)[C@@H](O)[C@@H]1O (some centres unmarked) [F1P, fructose-1-phosphate]
0.00024 ± 3e-05	O=P(O)(O)OC[C@H]1OC(O)(COP(=O)(O)O)[C@@H](O)[C@@H]1O (some centres unmarked) [FBP, fructose-1,6-bisphosphate]
